What was measured:
Test in all cases: relative viability (nuclei count vs DMSO), 5 days (fraction); higher = more cells survive
[1] = compound: CCN1CCC(CC1)N2C=C(N=N2)CNC3=CC4=C(C(=CN=C4C(=C3)Cl)C#N)NC5=CC(=C(C=C5)F)Cl [KIN001-266] + N=C(N)NC(=N)NCCc1ccccc1 [Phenformin] (partner 250 µM)
How it was run: (§1)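 Cells from lung cancer lines were seeded into 1536-well plates and, one day later, dosed by pin tool. Treatments were either a single drug or a fixed dose of an anchor drug with five library-drug doses (not always all listed) in √10 steps. After 5 days, nuclei were stained in a one-step fixation (final 0.05% Triton X-100, 1% formaldehyde, 1 ug/ml Hoechst) and counted on 4× images, and relative viability is the treated-to-vehicle nuclei ratio, as the median of duplicate plates.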

[2] = compound: CCN1CCC(CC1)N2C=C(N=N2)CNC3=CC4=C(C(=CN=C4C(=C3)Cl)C#N)NC5=CC(=C(C=C5)F)Cl [KIN001-266] + COc1cccc2cc(-c3nc([C@H]4CC[C@H](C(=O)O)CC4)n4ncnc(N)c34)[nH]c12 [OSI-027] (partner 0.5 µM)
How it was run: as §1

[3] = compound: CCN1CCC(CC1)N2C=C(N=N2)CNC3=CC4=C(C(=CN=C4C(=C3)Cl)C#N)NC5=CC(=C(C=C5)F)Cl [KIN001-266] + CC(=O)Nc1cccc(-n2c(=O)n(C3CC3)c(=O)c3c(Nc4ccc(I)cc4F)n(C)c(=O)c(C)c32)c1 [Trametinib] (partner 0.02 µM)
How it was run: as §1

[4] = compound: CCN1CCC(CC1)N2C=C(N=N2)CNC3=CC4=C(C(=CN=C4C(=C3)Cl)C#N)NC5=CC(=C(C=C5)F)Cl [KIN001-266] + C[C@@H](Oc1cc(-c2cnn(C3CCNCC3)c2)cnc1N)c1c(Cl)ccc(F)c1Cl [Crizotinib] (partner 1 µM)
How it was run: as §1

Cell Line | relative viability ([1]; first compound 0.08 µM) | relative viability ([1]; first compound 0.253 µM) | relative viability ([1]; first compound 0.8 µM) | relative viability ([1]; first compound 2.53 µM) | relative viability ([1]; first compound 8 µM) | relative viability ([2]; first compound 0.08 µM) | relative viability ([2]; first compound 0.253 µM) | relative viability ([2]; first compound 0.8 µM) | relative viability ([2]; first compound 2.53 µM) | relative viability ([2]; first compound 8 µM) | relative viability ([3]; first compound 0.08 µM) | relative viability ([3]; first compound 0.253 µM) | relative viability ([3]; first compound 0.8 µM) | relative viability ([3]; first compound 2.53 µM) | relative viability ([3]; first compound 8 µM) | relative viability ([4]; first compound 0.08 µM) | relative viability ([4]; first compound 0.253 µM) | relative viability ([4]; first compound 0.8 µM) | relative viability ([4]; first compound 2.53 µM) | relative viability ([4]; first compound 8 µM)
201T | 0.449 | 0.45 | 0.386 | 0.457 | 0.434 | 0.786 | 0.53 | 0.8 | 0.776 | 0.735 | 0.74 | 0.724 | 0.686 | 0.708 | 0.754 | 1.05 | 0.997 | 1.02 | 1.03 | 1.03
A-427 | 0.357 | 0.307 | 0.289 | 0.275 | 0.247 | 0.492 | 0.478 | 0.499 | 0.475 | 0.48 | 0.823 | 0.73 | 0.711 | 0.618 | 0.658 | 0.905 | 0.701 | 0.776 | 0.746 | 0.636
ABC-1 | 0.255 | 0.241 | 0.283 | 0.251 | 0.312 | 0.649 | 0.436 | 0.622 | 0.392 | 0.375 |  |  |  |  |  | 1.29 | 1.31 | 1.26 | 1.04 | 0.435
BEN | 0.262 | 0.262 | 0.275 | 0.259 | 0.231 | 0.296 | 0.335 | 0.305 | 0.274 | 0.283 | 1.01 | 1.01 | 1.07 | 1.03 | 1.15 | 0.756 | 0.815 | 0.948 | 0.811 | 1.04
CAL-12T | 0.571 | 0.545 | 0.515 | 0.568 | 0.534 | 0.696 | 0.742 | 0.538 | 0.508 | 0.509 | 0.357 | 0.442 | 0.351 | 0.293 | 0.37 | 0.562 | 0.565 | 0.693 | 0.589 | 0.686
COR-L23 | 0.439 | 0.452 | 0.452 | 0.455 | 0.368 | 0.851 | 0.788 | 0.895 | 0.657 | 0.582 | 0.634 | 0.667 | 0.651 | 0.512 | 0.486 | 0.751 | 0.832 | 0.642 | 0.561 | 0.416
COR-L 105 | 0.48 | 0.641 | 0.534 | 0.641 | 0.431 | 0.683 | 0.822 | 0.66 | 0.645 | 0.576 | 0.42 | 0.517 | 0.417 | 0.43 | 0.455 | 0.817 | 0.962 | 0.82 | 0.969 | 0.726
Calu-6 |  |  |  |  |  |  |  |  |  |  |  |  |  |  |  | 0.768 | 0.763 | 0.825 | 0.81 | 0.595
ChaGo-K-1 | 0.508 | 0.505 | 0.473 | 0.48 | 0.454 | 0.657 | 0.551 | 0.553 | 0.647 | 0.459 | 0.914 | 0.915 | 0.87 | 0.637 | 0.459 | 1.09 | 1.12 |  | 1.09 | 0.982
EKVX | 0.234 | 0.237 | 0.2 | 0.243 | 0.225 | 0.702 | 0.706 | 0.683 | 0.685 | 0.52 | 0.336 | 0.312 | 0.303 | 0.412 | 0.344 | 0.893 | 0.933 | 0.894 | 0.899 | 0.894
EMC-BAC-2 | 0.56 | 0.516 | 0.482 | 0.54 | 0.475 | 0.456 | 0.448 | 0.373 | 0.419 | 0.365 | 0.896 | 0.958 | 0.842 | 0.868 | 0.855 | 0.826 | 0.797 | 0.758 | 0.751 | 0.794
EPLC-272H | 0.334 | 0.317 | 0.274 | 0.234 | 0.239 | 0.306 | 0.303 | 0.242 | 0.249 | 0.264 | 0.295 | 0.273 | 0.284 | 0.27 | 0.275 | 0.939 | 0.862 | 0.752 | 0.943 | 0.656
H3255 | 0.356 | 0.373 | 0.353 | 0.353 | 0.345 | 0.555 | 0.618 | 0.52 | 0.542 | 0.606 | 0.545 | 0.581 | 0.643 | 0.659 | 0.484 | 0.883 | 0.874 | 0.777 | 0.811 | 0.71
HARA | 0.455 | 0.483 | 0.433 | 0.457 | 0.295 | 0.559 | 0.644 | 0.395 | 0.501 | 0.276 | 0.634 | 0.868 | 0.91 | 0.858 | 0.424 | 1.07 | 1.24 | 0.894 | 0.967 | 0.782
HCC-15 | 0.48 | 0.472 | 0.421 | 0.43 | 0.34 | 0.71 | 0.699 | 0.63 | 0.524 | 0.518 | 0.413 | 0.392 | 0.388 | 0.344 | 0.328 | 0.778 | 0.821 | 0.738 | 0.626 | 0.565
HCC-44 | 0.229 | 0.185 | 0.197 | 0.26 | 0.3 | 0.5 | 0.664 | 0.605 | 0.441 | 0.593 | 1.13 | 1.06 | 1.07 | 1.07 | 1.16 | 0.812 | 0.785 | 0.754 | 0.797 | 0.743
HCC-78 | 0.714 | 0.664 |  | 0.656 | 0.806 | 0.34 | 0.39 |  | 0.308 | 0.37 | 0.747 | 0.705 | 0.667 | 0.838 | 0.753 | 0.324 | 0.357 | 0.293 | 0.39 | 0.381

— the supplement of paper PMC10307832
